Consider 3 molecules from patent US10791740B2, “Enhancement of antibiotic efficacy” (priority 2014, dated 2020).

One may read the MIC as the lowest concentration that inhibits growth of the organism. The term IC50 denotes the point on the concentration scale where inhibition reaches its midpoint. A low value points to inhibition by little substance.

Data set [1] has as its system tetracycline resistant E. coli. The class given is cell-based, Escherichia coli. The following applies: for MIC: single agent, Table 5; for MIC (μM) of amphiphile alone: tetracycline resistant E. coli, Tables 6 and 7. The source says:
(§1) Certain aspects are drawn to a method for increasing or enhancing the antimicrobial activity of an antimicrobial agent. As used herein, the “antimicrobial activity” of an antimicrobial agent is defined as the property of a substance to inhibit the growth and reproduction of a microbial organism or to kill it. Common terms generally applied to bacteria are bacteriostatic (stops growth) and bactericidal (kills bacteria). Depending on the concentrations applied, microbial growth can be slowed or stopped in comparison to concurrent experiments conducted in the absence of an antimicrobial agent. Depending on the concentrations applied, additional microbe death can occur in comparison to concurrent experiments conducted in the absence of an antimicrobial agent. […] The MIC is the lowest concentration of any agent having antimicrobial activity that inhibits the growth of a microorganism as judged by visual inspection. MIC can be determined by inoculating media with the organism and adding the antimicrobial agent diluted successively in half.
(§2) Among the organisms studied are several strains of the bacterium E. coli.
N,N′-Dibenzyl-4,13-diaza-18-crown-6 is referred to in the table as dibenzyldiaza-18-crown-6.
(§3) Minimal Inhibitory Concentration (MIC) Procedure. […] Prepare initial concentration of all the compounds required. • 5. […] Vortex each test tube for 2-3 seconds. • 11.

The conditions of data set [2]: cited from earlier work.
The test system of data set [3] is E. coli. Description: MIC determination, E. coli (Table 1). In kind it is cell-based, Escherichia coli. The following applies: single agent.
Excerpt: as §1, §2, §3

The test system of another data set is B. stubtilis. Description: MIC determination, B. subtilis (Table 1). In kind it is cell-based, Bacillus subtilis. The following applies: single agent. The source says: (§4) Certain aspects are drawn to a method for increasing or enhancing the antimicrobial activity of an antimicrobial agent. As used herein, the “antimicrobial activity” of an antimicrobial agent is defined as the property of a substance to inhibit the growth and reproduction of a microbial organism or to kill it. Common terms generally applied to bacteria are bacteriostatic (stops growth) and bactericidal (kills bacteria). Depending on the concentrations applied, microbial growth can be slowed or stopped in comparison to concurrent experiments conducted in the absence of an antimicrobial agent. Depending on the concentrations applied, additional microbe death can occur in comparison to concurrent experiments conducted in the absence of an antimicrobial agent. The results of minimum inhibitory concentration (MIC) evaluations and growth curves are presented herein and the conditions are specified. The MIC is the lowest concentration of any agent having antimicrobial activity that inhibits the growth of a microorganism as judged by visual inspection. MIC can be determined by inoculating media with the organism and adding the antimicrobial agent diluted successively in half. […] Reference herein to increasing or enhancing activity, efficacy, potency, and the like are used interchangeably to mean that when the synthetic amphiphile is present, the ability of the antimicrobial agent to inhibit the growth of or to kill an organism will be manifested at a concentration lower than would be required to achieve the same results in the absence of said synthetic amphiphile.
(§5) Among the organisms studied are several strains of the bacterium E. coli. […] Experiments were conducted to determine the MIC values for the synthetic amphiphiles known as lariat ethers according to the procedures described in Antimicrobial M07-A9: Methods for Dilution Antimicrobial Susceptibility Tests for Bacteria that Grow Aerobically; Clinical and Laboratory Standards Institute, 2012; Vol. 32, 67 pp. MIC values so determined for several lariat ethers and for several antibiotics are shown in Table 1.

For a further data set, the system named is S. cerevisiae. Description: MIC determination, S. cerevisiae (Table 1). The following applies: single agent. The class given is cell-based, Saccharomyces cerevisiae.
Excerpt: as §4, §5

The subject of data set [4] is DH5α E. coli. Description: MIC of single agents against DH5α E. coli. The class given is cell-based, Escherichia coli.
Excerpt: as §1, §2, §3

For the next data set, the system named is HEK-293 cells. Description: MTT assay of toxicity to HEK-293 cells. The procedure:
The toxicity of C6. C8, C10. C11 and C14 lariat ethers to HEK-293 cells was determined by using an MTT assay. […] The abscissa is a logarithmic scale for the concentrations ranging from 1 μM to 1000 μM (1 mM) used in the experiment. The ordinate represents percent survival of HEK-293 cells.
Growth medium containing DMEM with high glucose (ATCC). 10% fetal bovine serum (FBS: Sigma-Aldrich) and 10 μg/mL of blasticidin (Thermo-Fischer) was prepared. HEK 293 cells were thawed out from cryo-preserved samples in 10 mL growth media, centrifuged at 500 rpm for 10 minutes to remove preservative. The cells were then resuspended in fresh growth medium and cultured using a T-75 flask (Thermo-Fischer) at 37° C. and 5% CO2. Cells were monitored for confluence and growth medium was replaced every 48 h, until cells were placed onto a 96-well plate for toxicity studies.
After reaching 80-90% confluence, cells were trypsinized and suspended in media containing DMEM and 10% FBS (no antibiotics). The cells were counted on a hemacytometer and plated at a density of 20,000 cells per well in a 96-well plate and grown for 24 hours to reach 60-70% confluence. DMSO stocks of C6, C8, C10, C11 and C14 diaza-18-crown-6 lariat ethers were prepared at […] and diluted 1:10 to get working concentrations of 20 mM, 2 mM, and 0.2 mM. Each stock was further diluted […] into DMEM supplemented with 10% FBS to get final concentrations of 1 mM, 0.1 mM, 0.01 mM (10 μM) and 0.001 mM (1 μM). The original media was then removed from the cells and replaced with 200 μL media containing the desired concentration of compound. Three wells were used for each concentration providing experimental triplicates. […] The absorbance was measured at 570 nm and nonspecific absorbance was corrected at 650 nm, using SpectraMax340 micro plate reader.
The experiment was performed in triplicate and the average of percent survival of three experiments was determined. […] The lethal dose 50 (LD50) for each compound was calculated by using the equation for a logarithmic regression curve.

Data set [5] concerns DH5α E. coli. Description: Inhibitory concentration (IC50) to DH5α E. coli cells (FIG. 4). In kind it is cell-based, Escherichia coli. The following applies: DH5α E. coli, FIG. 4. The source says: Two commonly used abbreviations are LD50 and IC50. The former is the concentration of an agent that comprises a lethal dose to 50% of the organism under study. The latter is the concentration of agent that inhibits growth of 50% of the organism under study. […] The abscissa represents the number of (CH2) groups in spacer chains. The ordinate is logarithmic and reflects the concentrations (in μM) of the various lariat ethers used.

Data set [6] relates to tetracycline resistant E. coli.
Description: • 1. Steps 1-7, described in the MIC procedure, shown in Example 2, were followed. • 2. While the E. coli grew, the appropriate volume of compound was added to each test tube. • 3. Antibiotics were added at the required volume of solution to obtain the desired concentration in each test tube. […] Each test tube was vortexed for 2-3 seconds. • 5. Steps 10-12 from the MIC procedure, shown in Example 2, were then executed.
Data set [7] concerns K-12 E. coli. Description: MIC of single agents against K-12 E. coli.
The subject of data set [8] is K-12 E. coli. As to the kind of experiment: Combination of amphiphile and antibiotic against K-12 E. coli.
Description: (§6) Steps 1-7, described in the MIC procedure, shown in Example 2, were followed. • 2. While the E. coli grew, the appropriate volume of compound was added to each test tube. • 3. Antibiotics were added at the required volume of solution to obtain the desired concentration in each test tube. […] Each test tube was vortexed for 2-3 seconds. • 5. Steps 10-12 from the MIC procedure, shown in Example 2, were then executed.
Data set [9] relates to DH5α E. coli. As to the kind of experiment: Combination of lariat ether and antibiotic against DH5α E. coli. The following applies: 0.4 vol-% DMSO.
Description: The volume of water added was between 12 to 0.5 μL. The volume of water added was not constant but the volume of media was changed so that the total volume was kept constant at 2 mL.
as §6
The test system of data set [10] is E. coli. The following applies: Journal of the American Chemical Society 2002, 124, 9022-3, cited from earlier work.

Converted amounts (≈) assume the structure as drawn. Like-named read-outs stand apart in the source and are kept apart here.

Regarding `c1ccc(CN2CCOCCOCCN(CCCCCCCCCCN3CCOCCOCCN(CCCCCCCCCCN4CCOCCOCCN(Cc5ccccc5)CCOCCOCC4)CCOCCOCC3)CCOCCOCC2)cc1`, in data set [1], the “MIC” value amounted to 35 ± 5 µM (≈ 43.5 µg/mL) and the “MIC (μM) of amphiphile alone” value was 35 µM. Besides, in data set [2] (thickest DEPC membranes), the “cation transport in liposome membranes” value was “nearly inactive”.
Consider `CCCCCCCCCCCN1CCOCCOCCN(CCCCCCCCCCC)CCOCCOCC1` [C11 lariat ether, N,N′-di-n-undecyl-4,13-diaza-18-crown-6], for which the MIC (against E. coli [3]; in [1]) was 24 µM (≈ 13.7 µg/mL) throughout. The “MIC (μM) B. stubtilis” value in the data set on B. stubtilis was 9 µM (≈ 5.14 µg/mL). Moreover, in the data set on S. cerevisiae, the “MIC (μM) S. cerevisiae” value was determined as 1.5 µM (≈ 0.856 µg/mL). In addition, the “MIC (μM) of lariat ether alone” value in the data set on DH5α E. coli [4] (DH5α E. coli, Tables 2 and 3) came out at 24 µM. Also, the “MIC to DH5α E. coli” value with DH5α E. coli [4] (single agent, values of the running text) was 24 µM. For the same molecule, the “MIC (μM) of amphiphile alone” value (in [1]; in the data set on K-12 E. coli [7]) was 24 µM each time. In addition, the “LD50 to HEK-293” value in the data set with HEK-293 cells turned out to be 22 µM. The same molecule had an IC50 in the data set on DH5α E. coli [5] of 12 µM. Besides, the “Fold Enhancement” value in data set [6] (Tetracycline with 8 μM C11 lariat ether) is listed as 5 fold; in data set [6] (Tetracycline with 12 μM C11 lariat ether), 10 fold; in data set [6] (Tetracycline with 16 μM C11 lariat ether), 10 fold; in [6] (Tetracycline with 18 μM C11 lariat ether) it was 10 fold; with K-12 E. coli [8] (Rifampicin with 6 μM C11 lariat ether), 2 fold; in the data set with K-12 E. coli [8] (Tetracycline with 6 μM C11 lariat ether), ~2 fold. In addition, the “Fold Enhancement” value with DH5α E. coli [9] (rifampicin with 8 μM n-C11 lariat ether) turned out to be 4 fold; with DH5α E. coli [9] (rifampicin with 12 μM n-C11 lariat ether), 10 fold; in the data set on DH5α E. coli [9] (rifampicin with 16 μM n-C11 lariat ether) it was 10 fold; with DH5α E. coli [9] (rifampicin with 18 μM n-C11 lariat ether) it was 20 fold; in the data set on DH5α E. coli [9] (tetracycline with 4 μM n-C11 lariat ether), 4 fold; in the data set on DH5α E. coli [9] (tetracycline with 12 μM n-C11 lariat ether), 12 fold. Also, the figures for the “Fold Enhancement” value in the data set on DH5α E. coli [9] (tetracycline with 16 μM n-C11 lariat ether) and in the data set on DH5α E. coli [9] (tetracycline with 18 μM n-C11 lariat ether) were 48 fold and 8 fold, respectively.
As to `c1ccc(CN2CCOCCOCCN(CCCCCCCCN3CCOCCOCCN(CCCCCCCCN4CCOCCOCCN(Cc5ccccc5)CCOCCOCC4)CCOCCOCC3)CCOCCOCC2)cc1` [C8 hydraphile], in data set [1], the “MIC” value was 250 ± 10 µM (≈ 297 µg/mL) and the “MIC (μM) of amphiphile alone” value came out at 250 µM. In addition, in data set [2] (DMPC, DOPC, or DEPC membranes), the “cation transport in liposome membranes” value is on record as “failed to transport”. In the data set on E. coli [10] (listed as C8 benzyl hydraphile), the “toxicity to E. coli” value is reported as “did not”. In the data set with E. coli [10] (listed as hydraphile having —(CH2)8— spacers), the “toxicity to E. coli” value is “did not exhibit toxicity”.
